The structures appear in SMILES notation.

The subject of one data set is HCV replicon. Briefly: anti-viral assay (EC50), Table 13. The data set is classed as cell-based. Particulars: Hepatitis C virus, anti-viral assays. The source says: The ability of a compound to inhibit HCV replication can be measured in vitro or using animal models using models and assays well known to those of skill in the art (e.g. Pietschmann et al, Clin Liver Dis. 7(1)c23-43, 2003). In vitro techniques for measuring the ability of a compound to inhibit HCV replication involve using HCV or an HCV replicon. Because HCV is difficult to grow in culture, particular in vitro techniques employ an HCV replicon.
An HCV replicon is an RNA molecule able to autonomously replicate in a cultured cell, such as Huh7. The HCV replicon expresses the HCV derived components of the replication machinery and contains cis-elements required for replication in a cultured cell. […]

Data set [1] in a line: cytotoxicity measurement (CC50), Table 13. The format is cell-based. To be noted: human, Huh7 cells.

As a reminder, the EC50 is the concentration at which the effect is half-maximal. Lower therefore signals greater potency. The term CC50 denotes the concentration at which the toxic effect on the cells reaches its halfway point. High values mean better tolerance by the cells, low ones harm at low concentration. On to `Oc1ccc(-c2cnc3c(NCCc4ccncc4)nccn23)cc1` [Compound 2], for which the EC50 with HCV replicon is 1 to 20 µM. The CC50 in data set [1] is less than 35 µM.

`OCc1ccc(-c2cnc3c(NCCc4ccncc4)nccn23)cc1` [Compound 3] showed an EC50 in the data set with HCV replicon of more than 20 µM. For the same compound, the CC50 in data set [1] was more than 35 µM.

Take `CS(=O)(=O)Nc1cccc(-c2cnc3c(NCCc4ccncc4)nccn23)c1` [Compound 4]: in the data set on HCV replicon, the EC50 was 1 to 20 µM. This compound also came in with a CC50 in data set [1] of more than 35 µM.

`Oc1ccc(-c2cnc3c(NCc4ccncc4)nccn23)cc1` [Compound 5] gave an EC50 in the data set on HCV replicon of 1 to 20 µM. In data set [1], this compound showed a CC50 of more than 35 µM.

On to `Oc1cccc(-c2cnc3c(NCc4ccncc4)nccn23)c1` [Compound 6], for which the EC50 in the data set with HCV replicon lay within 1 to 20 µM. Further, the CC50 in data set [1] is more than 35 µM.

On to `COc1ccc(-c2cnc3c(NCc4cccnc4)nccn23)cc1OC` [Compound 7], for which the concentration for a half-maximal effect (EC50) with HCV replicon was 1 to 20 µM. For the same compound, the CC50 in data set [1] is more than 35 µM.

In the data set on HCV replicon, `NS(=O)(=O)c1ccc(CNc2nccn3c(-c4ccc5c(c4)OCO5)cnc23)cc1` [Compound 8] returned an EC50 of 1 to 20 µM. The compound also registered a CC50 in data set [1] of less than 35 µM.

The compound `COc1ccc(-c2cnc3c(NCc4ccc(S(N)(=O)=O)cc4)nccn23)cc1OC` [Compound 9] had a half-maximal effective concentration (EC50) in the data set on HCV replicon of less than 1 µM. The CC50 in data set [1] was more than 35 µM.

The compound `NS(=O)(=O)c1ccc(CNc2nccn3c(-c4ccc(F)c(Cl)c4)cnc23)cc1` [Compound 10] gave an EC50 with HCV replicon of 1 to 20 µM. The same compound yielded a CC50 in data set [1] of more than 35 µM.

As to `NS(=O)(=O)c1ccc(CNc2nccn3c(-c4ccc(F)cc4)cnc23)cc1` [Compound 11], in the data set on HCV replicon, the EC50 fell in the range of 1 to 20 µM. Besides, in data set [1], the CC50 was more than 35 µM.

In the data set on HCV replicon, `COc1cccc(-c2cnc3c(NCc4ccc(S(N)(=O)=O)cc4)nccn23)c1` [Compound 12] came in with an EC50 of 1 to 20 µM. In addition, the CC50 in data set [1] is more than 35 µM.

In the data set on HCV replicon, `COC(=O)c1ccc(CNc2nccn3c(-c4ccc(OC)c(OC)c4)cnc23)cc1` [Compound 13] showed an EC50 of 1 to 20 µM. This compound also displayed a CC50 in data set [1] of less than 35 µM.

`COc1ccc(-c2cnc3c(NCc4ccccc4)nccn23)cc1OC` [Compound 14]: the EC50 in the data set with HCV replicon lay in the range of 1 to 20 µM. Further, the CC50 in data set [1] was more than 35 µM.

Turning to `NS(=O)(=O)c1ccc(CNc2nccn3c(-c4ccc(OC(F)(F)F)cc4)cnc23)cc1` [Compound 15], the EC50 with HCV replicon is more than 20 µM. The CC50 in data set [1] is more than 35 µM.

In the data set with HCV replicon, `COc1ccc(-c2cnc3c(NCc4ccc(S(N)(=O)=O)cc4)nccn23)cc1` [Compound 16] had an EC50 of 1 to 20 µM. In data set [1], this compound showed a CC50 of more than 35 µM.

Take `COc1ccc(-c2cnc3c(NCCc4ccc(S(N)(=O)=O)cc4)nccn23)cc1OC` [Compound 17]: in the data set on HCV replicon, the EC50 is 1 to 20 µM. Besides, the CC50 in data set [1] was less than 35 µM.

Compound `CC(=O)c1cccc(-c2cnc3c(NCc4ccc(S(N)(=O)=O)cc4)nccn23)c1` [Compound 18] displayed an EC50 with HCV replicon of 1 to 20 µM. The compound also gave a CC50 in data set [1] of more than 35 µM.

In the data set with HCV replicon, `COc1ccc(-c2cnc3c(NCc4ccc(S(C)(=O)=O)cc4)nccn23)cc1OC` [Compound 19] gave an EC50 of 1 to 20 µM. The compound also displayed a CC50 in data set [1] of more than 35 µM.

In the data set with HCV replicon, `COc1cc(-c2cnc3c(NCc4ccc(S(N)(=O)=O)cc4)nccn23)ccc1O` [Compound 20] gave an EC50 of less than 1 µM. The compound also registered a half-maximal cytotoxic concentration (CC50) in data set [1] of less than 35 µM.

In turn, `COc1ccc(-c2cnc3c(NCc4ccc(NS(C)(=O)=O)cc4)nccn23)cc1OC` [Compound 22] displayed an EC50 with HCV replicon of 1 to 20 µM. For the same compound, in data set [1], the CC50 was more than 35 µM.

On to `COc1ccc(-c2cnc3c(NCc4cnccn4)nccn23)cc1OC` [Compound 23], for which the EC50 in the data set on HCV replicon is 1 to 20 µM. This compound had a CC50 in data set [1] of more than 35 µM.

In turn, `Oc1ccc(-c2cnc3c(NCc4ccccc4)nccn23)cc1` [Compound 24] gave an EC50 in the data set with HCV replicon of 1 to 20 µM. This compound came in with a CC50 in data set [1] of less than 35 µM.

`NS(=O)(=O)c1ccc(CNc2nccn3c(-c4ccc(O)c(F)c4)cnc23)cc1` [Compound 25] registered an EC50 in the data set on HCV replicon of less than 1 µM. In data set [1], this compound came in with a CC50 of more than 35 µM.

Regarding `COc1ccc(-c2cnc3c(NCCNC(C)=O)nccn23)cc1OC` [Compound 26], the 50% effective concentration (EC50) in the data set with HCV replicon fell in the range of 1 to 20 µM. Moreover, the CC50 in data set [1] is more than 35 µM.

The record behind these values is patent US8362018B2, “Substituted imidazo[1,2-a]pyrazine compounds useful for the treatment of viral infections” (Biofocus DPI, Ltd., priority 2007, dated 2013).
